Data reported in EP0367033A1, “S-Difluoromethylhomocysteines, preparation process, and insecticidal compositions” (SHIONOGI SEIYAKU KABUSHIKI KAISHA, priority 1988, dated 1990).
Values after ≈ are worked out from the molar mass of the structure shown. Like-named read-outs stand apart in the source and are kept apart here.

Legend:
[1] = tested on: Myzus persicae resistant to malathion and pirimicarb; test: Foliar spray test on larvae of Myzus persicae, strain resistant to malathion and pirimicarb; assay type: in vivo; settings: for LC50: read-out: LC₅₀ (ppm) Resistant Strain
Experimental: (§1) A solution of the compound is diluted with distilled water containing Tween 20® at a concentration of 100 ppm to prepare a predetermined concentration of the test solution. Malathion emulsion and pirimicarb wettable powder are diluted with distilled water to prepare a predetermined concentration of the test solution, respectively.
(§2) Myzus persicae (URR-O type) distributed from Chiba University, which were reared for succesive generations, were used as a group of sensitive strains. Myzus persicae resistant to malathion and pirimicarb which were collected from Aburahi Laboratory of Shionogi & Co., Ltd. and reared for succesive generations while selecting those resistant to these drugs were used as a group of resistant strains.
(§3) A polyethylene cup (diameter 6 cm, depth 4 cm) was filled with 0.3 % agar gel and a piece of Chinese cabbage leaf (3x3 cm) was placed on the gel. One apterous adult of Myzus persicae was put on the leaf and allowed to keep at 25 °C for 24 hours to make larviposition. After removal of the adult, 2 ml of the test solution was applied to the foliage under a rotary sprayer; and larvae of Myzus persicae was allowed to keep at 25 °C for 48 hours. Then the mortality of the larvae was determined and the value of LC₅₀ was calculated by the method of Billis. [Bliis, Ann. Appl. Biol.,22, 134;307 (1935)].

[2] = tested on: Myzus persicae (URR-O type), sensitive strains; test: Foliar spray test on larvae of Myzus persicae, sensitive strain; assay type: in vivo; settings: for LC50: read-out: LC₅₀ (ppm) Sensitive Strain
Experimental: as §1, §2, §3

[3] = 7.8 ppm, larvae, 25 °C, 48 hours after spraying
[4] = 15.6 ppm, larvae, 25 °C, 48 hours after spraying
[5] = 31.3 ppm, larvae, 25 °C, 48 hours after spraying
[6] = 62.5 ppm, larvae, 25 °C, 48 hours after spraying
[7] = 125 ppm, larvae, 25 °C, 48 hours after spraying
[8] = 250 ppm, larvae, 25 °C, 48 hours after spraying
[9] = larvae, 48 hours, ( ) means 95 % confidence limit

SMILES | mortality at 7.8 ppm [1, 3] | mortality at 15.6 ppm [1, 4] | mortality at 31.3 ppm [1, 5] | mortality at 62.5 ppm [1, 6] | mortality at 125 ppm [1, 7] | mortality at 250 ppm [1, 8] | LC50 [1, 9] | mortality at 7.8 ppm [2, 3] | mortality at 15.6 ppm [2, 4] | mortality at 31.3 ppm [2, 5] | mortality at 62.5 ppm [2, 6] | mortality at 125 ppm [2, 7] | mortality at 250 ppm [2, 8] | LC50 [2, 9] | LC50 ([1]; 48 h) | LC50 ([2]; 48 h)
N[C@@H](CCSC(F)F)C(=O)O [Compound I ^a, L-difluoromethylhomocysteine] | 5% | 0% | 54.2% | 100% | 100% | 100% | 27.1 µg/mL (≈ 146 µM) | 0% | 8.7% | 4.8% | 57.1% | 100% | 100% | 52.9 µg/mL (≈ 286 µM) | – | –
CCOC(=O)CC(SP(=S)(OC)OC)C(=O)OCC (stereo not drawn) [malathion, reference compound] | – | – | – | – | – | – | – | – | – | – | – | – | – | – | > 2000 µg/mL | 136 µg/mL (≈ 412 µM)
Cc1nc(N(C)C)nc(OC(=O)N(C)C)c1C [pirimicarb, reference compound] | – | – | – | – | – | – | – | – | – | – | – | – | – | – | > 1920 µg/mL | 8.2 µg/mL (≈ 34.4 µM)
